Assays:
[1] = target: T1, Protein deacetylase HDAC6 (Homo sapiens, UniProt Q9UBN7); experiment: Inhibition of human recombinant HDAC6 using fluorescent peptide p53 (379 to 382 residues) RHKK(Ac) as substrate by fluorescence based analysis
T1 sequence (Q9UBN7 whole entry): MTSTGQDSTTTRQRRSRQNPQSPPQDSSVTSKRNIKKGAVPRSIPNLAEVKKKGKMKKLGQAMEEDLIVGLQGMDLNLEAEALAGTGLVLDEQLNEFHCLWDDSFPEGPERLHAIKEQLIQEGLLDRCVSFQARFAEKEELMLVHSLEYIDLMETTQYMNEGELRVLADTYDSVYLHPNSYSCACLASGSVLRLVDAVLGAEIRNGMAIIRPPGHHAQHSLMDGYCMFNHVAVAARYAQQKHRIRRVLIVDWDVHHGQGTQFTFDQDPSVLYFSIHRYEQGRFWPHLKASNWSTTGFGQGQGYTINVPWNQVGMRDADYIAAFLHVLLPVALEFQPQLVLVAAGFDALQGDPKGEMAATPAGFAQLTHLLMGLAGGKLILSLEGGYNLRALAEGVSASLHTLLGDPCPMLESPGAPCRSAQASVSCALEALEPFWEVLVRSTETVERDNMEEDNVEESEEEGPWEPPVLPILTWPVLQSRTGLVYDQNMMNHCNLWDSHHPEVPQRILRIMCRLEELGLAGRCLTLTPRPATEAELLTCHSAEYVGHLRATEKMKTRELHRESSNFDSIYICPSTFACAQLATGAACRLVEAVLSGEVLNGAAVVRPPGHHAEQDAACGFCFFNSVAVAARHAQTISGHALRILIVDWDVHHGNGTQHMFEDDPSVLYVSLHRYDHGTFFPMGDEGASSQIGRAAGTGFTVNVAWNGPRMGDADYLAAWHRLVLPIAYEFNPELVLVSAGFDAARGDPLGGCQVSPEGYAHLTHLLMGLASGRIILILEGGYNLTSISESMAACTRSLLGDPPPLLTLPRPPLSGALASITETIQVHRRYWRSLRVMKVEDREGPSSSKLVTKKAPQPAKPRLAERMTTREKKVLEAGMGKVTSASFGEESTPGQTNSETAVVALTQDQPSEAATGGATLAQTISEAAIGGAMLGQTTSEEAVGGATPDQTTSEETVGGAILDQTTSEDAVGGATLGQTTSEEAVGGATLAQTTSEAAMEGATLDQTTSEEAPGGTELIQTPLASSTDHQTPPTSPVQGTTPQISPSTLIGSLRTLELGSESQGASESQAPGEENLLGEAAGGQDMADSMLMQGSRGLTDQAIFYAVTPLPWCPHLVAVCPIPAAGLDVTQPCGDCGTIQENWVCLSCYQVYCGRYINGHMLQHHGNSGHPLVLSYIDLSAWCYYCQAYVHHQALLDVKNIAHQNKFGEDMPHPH

[2] = target: Histone deacetylase 3 (Homo sapiens, UniProt O15379)
[3] = target: Histone deacetylase 2 (Homo sapiens, UniProt Q92769); experiment: Inhibition of human recombinant HDAC2 using fluorescent peptide p53 (379 to 382 residues) RHKK(Ac) as substrate by fluorescence based analysis
[4] = target: T1, Protein deacetylase HDAC6; experiment: Inhibition of N-terminal GST-tagged human recombinant HDAC6 expressed in Spodoptera frugiperda incubated for 60 mins by fluorescence based analysis
[5] = target: T2, Polyamine deacetylase HDAC10 (Homo sapiens, UniProt Q969S8); experiment: Inhibition of human recombinant HDAC10 using fluorescent peptide p53 (379 to 382 residues) RHKK(Ac) as substrate by fluorescence based analysis
T2 sequence (Q969S8 whole entry): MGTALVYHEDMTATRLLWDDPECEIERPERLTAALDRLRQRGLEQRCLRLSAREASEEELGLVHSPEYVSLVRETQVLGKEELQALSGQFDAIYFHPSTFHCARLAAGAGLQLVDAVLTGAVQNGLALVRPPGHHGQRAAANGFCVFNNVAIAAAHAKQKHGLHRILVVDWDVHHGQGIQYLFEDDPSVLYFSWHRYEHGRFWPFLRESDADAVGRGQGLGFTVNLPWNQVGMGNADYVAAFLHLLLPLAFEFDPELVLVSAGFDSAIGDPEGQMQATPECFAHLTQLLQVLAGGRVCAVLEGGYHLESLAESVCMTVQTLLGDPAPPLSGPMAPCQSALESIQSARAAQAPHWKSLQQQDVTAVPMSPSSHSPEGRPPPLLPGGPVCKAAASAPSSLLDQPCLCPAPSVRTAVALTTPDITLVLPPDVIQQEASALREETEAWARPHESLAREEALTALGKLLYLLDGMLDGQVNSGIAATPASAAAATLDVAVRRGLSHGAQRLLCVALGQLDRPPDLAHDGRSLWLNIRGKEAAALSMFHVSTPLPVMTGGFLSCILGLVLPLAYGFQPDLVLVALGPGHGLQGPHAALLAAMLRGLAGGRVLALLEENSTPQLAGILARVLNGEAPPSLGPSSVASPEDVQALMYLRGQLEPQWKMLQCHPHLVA

[6] = species: Homo sapiens; experiment: Selectivity index, ratio of IC50 for inhibition of his-tagged human recombinant HDAC1 using fluor de lys-SIRT1 as substrate to IC50 for inhibition of N-terminal GST-tagged human recombinant HDAC6 expressed in Spodoptera frugiperda
[7] = target: T3, Histone deacetylase 1 (Homo sapiens, UniProt Q13547); experiment: Inhibition of his-tagged human recombinant HDAC1 using fluor de lys-SIRT1 as substrate incubated for 60 mins by fluorescence based analysis
[8] = target: T3, Histone deacetylase 1; experiment: Inhibition of HDAC1 (unknown origin)

T3 sequence (Q13547 whole entry): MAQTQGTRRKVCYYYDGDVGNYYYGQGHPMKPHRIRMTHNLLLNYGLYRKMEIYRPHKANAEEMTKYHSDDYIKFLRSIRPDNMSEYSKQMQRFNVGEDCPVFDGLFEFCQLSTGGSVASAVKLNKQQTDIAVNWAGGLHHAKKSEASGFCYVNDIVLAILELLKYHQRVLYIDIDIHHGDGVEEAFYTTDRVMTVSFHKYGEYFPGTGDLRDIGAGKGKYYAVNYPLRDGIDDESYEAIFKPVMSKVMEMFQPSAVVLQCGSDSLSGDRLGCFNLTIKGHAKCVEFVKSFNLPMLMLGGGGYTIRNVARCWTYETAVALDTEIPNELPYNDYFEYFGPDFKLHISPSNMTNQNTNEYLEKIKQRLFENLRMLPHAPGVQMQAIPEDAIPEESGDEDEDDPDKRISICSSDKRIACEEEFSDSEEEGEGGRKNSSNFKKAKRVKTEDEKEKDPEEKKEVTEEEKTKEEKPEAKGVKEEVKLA
Chain of Histone deacetylase 2 (Q92769 whole entry, the tested form may be a part): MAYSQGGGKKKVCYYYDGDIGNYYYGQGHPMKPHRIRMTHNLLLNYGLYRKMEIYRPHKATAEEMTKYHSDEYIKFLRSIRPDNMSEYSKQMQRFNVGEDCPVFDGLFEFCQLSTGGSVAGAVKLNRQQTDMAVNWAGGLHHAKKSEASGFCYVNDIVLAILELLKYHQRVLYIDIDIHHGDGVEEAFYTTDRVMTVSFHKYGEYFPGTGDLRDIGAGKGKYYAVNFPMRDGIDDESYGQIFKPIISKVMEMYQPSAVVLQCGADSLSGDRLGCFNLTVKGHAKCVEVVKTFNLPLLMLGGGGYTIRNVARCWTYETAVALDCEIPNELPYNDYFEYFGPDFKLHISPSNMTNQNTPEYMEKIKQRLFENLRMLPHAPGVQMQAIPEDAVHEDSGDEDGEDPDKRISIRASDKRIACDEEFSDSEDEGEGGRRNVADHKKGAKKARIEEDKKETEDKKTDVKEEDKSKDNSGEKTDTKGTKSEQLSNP
Chain of Histone deacetylase 3 (O15379 whole entry, the tested form may be a part): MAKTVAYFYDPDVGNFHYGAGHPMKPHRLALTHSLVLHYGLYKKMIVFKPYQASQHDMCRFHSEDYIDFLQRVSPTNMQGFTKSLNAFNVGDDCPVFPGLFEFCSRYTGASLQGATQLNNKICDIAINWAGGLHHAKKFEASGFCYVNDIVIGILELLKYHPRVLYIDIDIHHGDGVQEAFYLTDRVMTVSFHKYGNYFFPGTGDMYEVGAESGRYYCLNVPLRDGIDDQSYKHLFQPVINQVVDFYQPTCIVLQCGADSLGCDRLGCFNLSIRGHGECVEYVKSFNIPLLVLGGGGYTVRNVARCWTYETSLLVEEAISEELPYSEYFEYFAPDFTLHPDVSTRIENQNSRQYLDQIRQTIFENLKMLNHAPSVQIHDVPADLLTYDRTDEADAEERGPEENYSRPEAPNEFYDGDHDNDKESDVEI

| SMILES | IC50 [4] | Ratio IC50 [6] | other results |
| --- | --- | --- | --- |
| CN1CCN(CC2CCc3c(c4cc(F)ccc4n3Cc3ccc(C(=O)NO)cc3)C2=O)CC1 (stereo not drawn) | 5 nM | 530 | IC50 [1]: 4 nM; IC50 [2]: > 20000 nM; IC50 [3]: > 20000 nM; IC50 [5]: > 20000 nM |
| CCN1CCN(CC2CCc3c(c4ccccc4n3Cc3ccc(C(=O)NO)cc3)C2=O)CC1 (stereo not drawn) | 14 nM | 329 | – |
| CC(C)N1CCN(CC2CCc3c(c4cc(F)ccc4n3Cc3ccc(C(=O)NO)cc3)C2=O)CC1 (stereo not drawn) | – | 50.2 | – |
| Cc1c2c(n(Cc3ccc(C(=O)NO)cc3)c1C)CC(C)(C)CC2=O | 11 nM | 464 | – |
| CC1(C)CC(=O)c2c(n(Cc3ccc(C(=O)NO)cc3)c3ccc(Br)cc23)C1 | – | 42.4 | – |
| CC1(C)CC(=O)c2c(n(Cc3ccc(C(=O)NO)cc3)c3ccccc23)C1 | 12 nM | 345 | IC50 [7]: 4140 nM |
| CC(C)(C)OC(=O)N1CCN(CC2CCc3c(c4ccccc4n3Cc3ccc(C(=O)NO)cc3)C2=O)CC1 (stereo not drawn) | – | 327 | – |
| Cc1nccn1CC1C(=O)c2c(n(Cc3ccc(C(=O)NO)cc3)c3ccccc23)CC1(C)C (stereo not drawn) | 35 nM | 166 | – |
| Cc1cn(Cc2ccc(C(=O)NO)cc2)c2c1C(=O)CCC2 | 2 nM | 543 | IC50 [7]: 1130 nM |
| CC1(C)Cc2c(c3cc(F)ccc3n2Cc2ccc(C(=O)NO)cc2)C(=O)C1CN1CCOCC1 (stereo not drawn) | – | 41.4 | – |
| CN1CCN(CC2C(=O)c3c(n(Cc4ccc(C(=O)NO)cc4)c4ccc(F)cc34)CC2(C)C)CC1 (stereo not drawn) | 2 nM | 182 | – |
| CC1CN(CC2CCc3c(c4ccccc4n3Cc3ccc(C(=O)NO)cc3)C2=O)CC(C)O1 (stereo not drawn) | 11 nM | 79.1 | IC50 [7]: 870 nM |
| CN1CCN(CC2CCc3c(c4ccccc4n3Cc3ccc(C(=O)NO)cc3)C2=O)CC1 (stereo not drawn) | 12 nM | 345 | – |
| O=C(NO)c1ccc(Cn2c3c(c4cc(F)ccc42)C(=O)C(CN2CCOCC2)CC3)cc1 (stereo not drawn) | 5 nM | 828 | – |
| Cc1cn(Cc2ccc(C(=O)NO)cc2)c2c1C(=O)CC(C)(C)C2 | 8 nM | 380 | – |
| O=C(NO)c1ccc(Cn2c3c(c4ccccc42)CCCC3)cc1 | – | – | IC50 [8]: 10900 nM |
| Cc1c2c(n(Cc3ccc(C(=O)NO)cc3)c1C)CCCC2=O | 4 nM | 705 | – |
| CCCCN1CCN(CC2CCc3c(c4cc(F)ccc4n3Cc3ccc(C(=O)NO)cc3)C2=O)CC1 (stereo not drawn) | 6 nM | 373 | – |
| O=C(NO)c1ccc(Cn2c3c(c4ccccc42)C(=O)C(CN2CCCCC2)CC3)cc1 (stereo not drawn) | 12 nM | 284 | – |
| Cc1ccc(N2CCN(CC3CCc4c(c5ccccc5n4Cc4ccc(C(=O)NO)cc4)C3=O)CC2)cc1C (stereo not drawn) | 40 nM | 203 | – |
| CC(C)(C)OC(=O)N1CCN(CC2CCc3c(c4cc(F)ccc4n3Cc3ccc(C(=O)NO)cc3)C2=O)CC1 (stereo not drawn) | – | 311 | – |
| O=C(NO)c1ccc(Cn2c3c(c4ccccc42)C(=O)C(CN2CCN(c4ccc(F)cc4)CC2)CC3)cc1 (stereo not drawn) | 8 nM | 661 | – |
| CCN1CCN(CC2CCc3c(c4cc(F)ccc4n3Cc3ccc(C(=O)NO)cc3)C2=O)CC1 (stereo not drawn) | 11 nM | 202 | – |
| Cc1nccn1CC1CCc2c(c3cc(F)ccc3n2Cc2ccc(C(=O)NO)cc2)C1=O (stereo not drawn) | 9 nM | 570 | – |
| O=C(NO)c1ccc(Cn2c3c(c4cc(F)ccc42)C(=O)CCC3)cc1 | – | 328 | – |
| CC1(C)Cc2c(c3ccccc3n2Cc2ccc(C(=O)NO)cc2)C(=O)C1CN1CCOCC1 (stereo not drawn) | – | 153 | – |
| Cc1nn(Cc2ccc(C(=O)NO)cc2)c2c1C(=O)CC(C)(C)C2 | 12 nM | 135 | – |

— ChEMBL document CHEMBL5523684, “Development of a tetrahydroindazolone-based HDAC6 inhibitor with in-vivo anti-arthritic activity” (Bioorg Med Chem, 2024)
